Assay results reported in patent publication US8431614B2, “Loxoprofen derivative and pharmaceutical preparation containing the same” (LTT Bio-Pharma Co., Ltd., priority 2009, dated 2013).

Target: T1, COX-2 (Homo sapiens, UniProt P35354)
T1 construct: from tissue; host or cells: heparinised human whole blood from a healthy donor, stimulated with LPS
T1 sequence (P35354 18-604): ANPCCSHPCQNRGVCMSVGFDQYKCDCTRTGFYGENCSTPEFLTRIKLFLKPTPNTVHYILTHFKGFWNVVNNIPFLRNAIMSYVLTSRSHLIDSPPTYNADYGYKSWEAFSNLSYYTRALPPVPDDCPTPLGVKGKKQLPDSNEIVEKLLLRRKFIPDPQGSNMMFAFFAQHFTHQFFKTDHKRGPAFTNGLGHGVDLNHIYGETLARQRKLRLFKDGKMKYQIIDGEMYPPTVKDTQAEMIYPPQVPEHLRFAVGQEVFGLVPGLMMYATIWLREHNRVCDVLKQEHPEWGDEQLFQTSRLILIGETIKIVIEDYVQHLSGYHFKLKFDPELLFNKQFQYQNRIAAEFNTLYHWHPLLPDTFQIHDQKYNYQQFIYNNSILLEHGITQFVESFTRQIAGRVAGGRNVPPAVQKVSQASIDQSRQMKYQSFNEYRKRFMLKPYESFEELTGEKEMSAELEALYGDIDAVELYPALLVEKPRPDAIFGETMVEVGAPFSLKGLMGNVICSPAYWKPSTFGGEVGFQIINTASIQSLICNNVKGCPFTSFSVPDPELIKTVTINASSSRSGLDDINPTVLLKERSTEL
Test: Human whole blood assay, in vitro COX-2 assay (LPS-induced PGE2 by EIA)
Format: cell-based
Conditions: ratio of IC50 COX-1 to IC50 COX-2
Description: This test was performed according to the method described in Inflamm. Res., 45: 68-74 (1996).
A person who had not taken NSAIDs for at least one week and was healthy on the day of blood collection was selected as a subject for blood collection.
Blood was collected in heparin-treated test tubes (Venojectll blood collection tubes, Terumo Corporation), and an inflammatory stimulant, lipopolysaccharide (LPS) (Sigma-Aldrich Japan Inc., #L2880 from E. coli055:B5: diluted in phosphate buffered saline (PBS) to a final concentration of 100 μg/mL) was added to the blood. The mixture was dispensed in 500 μL aliquots into tubes. 2 μL of the test compound (final concentration: 0.1 μM to 1000 μM) dissolved in an appropriate solvent (DMSO or MilliQ water) was added and incubated at 37° C. for 24 hours to induce COX-2.
After incubation, the samples were centrifuged at 12,000×g for 5 minutes to separate serum. 100 μL of the obtained serum was added to 400 μL of ethanol to remove blood protein, and the mixture was centrifuged again at 12,000×g for 5 minutes. PGE2 in the supernatant was quantified by using an enzyme immunoassay (EIA) kit [Cayman (Ann, Arbor, Mich., USA) #514040]. The protocol followed the protocol attached to the kit.

For `CC(C(=O)O)c1ccc(CC2CCCC2=O)cc1` (stereo not shown) [LOXONIN, loxoprofen], the “COX-2 S[…]. 1/COX. 2” value was 4.0.
